Laboratory results taken from publication PMC5384453, “A multi-functional PEGylated gold(III) compound: potent anti-cancer properties and self-assembly into nanostructures for drug co-delivery” (Chemical Science, 2016).
Blank lines part the entries; values can stand above or below the molecule they belong to.

Tests used:
[1] = test system: A2780adr cells; test: Cellular uptake, gold content by ICP-MS; assay type: in vitro ADME, human; conditions: 2 μM, 37 °C
Method: The uptake of 1 and 3, and Au1a by cancer cells and non-tumorigenic cells was examined in terms of the gold content in the cell lysates using ICP-MS.
(§1) B from 20.1 to 25 min and returned to initial conditions and equilibrated for 3 minutes.
(§2) The flow rate was 0.4 mL/min and the injection volume was 2 µL. The UPLC-QTOF-MS chromatograms of 1, 3, 4 and solvent control in acetonitrile were also recorded for the interpretation of UPLC-QTOF-MS chromatograms of the cell lysate.
(§3) Cellular uptake experiments. HCT116, A2780 and A2780adr (2×10 5 cells), and MIHA and NCM460 (3.5×10 5 cells) cells were grown on 6-well plates at 37 °C under an atmosphere of 5% CO2 for 48 h. […]
(§4) Au1a (2 µM; with 1 vol% DMSO). […] An aliquot of the cell suspension was subjected to Bio-rad protein assay with a microtitre plate reader at the absorbance at 595 nm, using bovine serum albumin as the protein standard. […] The solution mixture was heated at 65 °C with shaking overnight, and the gold content was determined by ICP-MS. […]
(§5) then removed and washed with PBS solution. The cells were then incubated with culture medium containing nanostructures of 1 (2 µM) and CellEvent Caspase-3/7 Green ReadyProbes Reagent (30 µL), or Au1a (2 µM; with 1 vol% DMSO) and CellEvent Caspase-3/7 Green ReadyProbes Reagent (30 µL) at 37 °C under an atmosphere of 5% CO2. […]

[2] = Transmission electron microscopy of nanostructures; assay type: physicochemical; conditions: self-assembled in PBS
Source text: (§6) On the other hand, the almost neutral zeta potentials of the nanostructures of 1 and 2 validated the presence of PEG pendant in the shell of the nanostructures. The identity of gold species in the core of the nanostructures was supported by the good contrast of the core in the TEM images (Fig. 1c and S3a ^†) and energy-dispersive X-ray (EDX) spectra (Fig. 1f).
The gold content in NC1 was confirmed by EDX (Fig. 1g).

[3] = Dynamic light scattering of nanostructures in PBS; assay type: physicochemical
Method: as §6
The gold content in NC1 was confirmed by EDX (Fig. 1g). […]
fetal bovine serum, ʟ-glutamine (2 mM) and penicillin/streptomycin (100 U/mL). […]
Physical measurements and instrumentation. 1H NMR spectra were recorded with a Bruker AVANCE 400 (400 MHz) or DPX-300 (300 MHz) Fourier transform NMR spectrometer at ambient temperature with tetramethylsilane (Me4Si) as an internal reference. MALDI-TOF mass spectra were recorded on a ABI4800 MALDI
TOF/TOF™ Analyzer using α-cyano-4-hydroxycinnamic acid with sodium trifluoroacetate as the matrix. Positive ion electrospray (ESI) mass spectra and ultra-performance liquid chromatography coupled quadrupole-time-of-flight mass spectrometry (UPLC-QTOF-MS) were recorded on a Waters Micromass Q-Tof
Premier quadrupole time-of-flight tandem mass spectrometer. Inductively coupled plasma mass spectra (ICP-MS) were recorded on Agilent 7500a inductively coupled plasma mass spectrometer (Agilent Technologies, CA, U.S.A.). […]

[4] = test system: NCM460 cells; test: Time-dependent induction of apoptosis, Caspase-3/7 Green ReadyProbes fluorescence microscopy; assay type: cell-based, human; conditions: NCM460, 2 μM, Caspase-3/7 Green Reagent
Method: as §1, §2
as §3, with “h. The culture medium was then removed, washed with PBS solution, and incubated with culture medium containing nanostructures of 1” for “h.”
as §4, with “DMSO). At a predetermined time, the culture medium was removed and washed with PBS solution for three times.” for “DMSO).”
as §5

[5] = test system: HCT116 cells; test: FITC-Annexin V staining and flow cytometry; assay type: cell-based, human; conditions: HCT116, 2 μM, 24 h
Method: (§7) The induction of apoptosis of HCT116 and NCM460 cells by 1 was further studied using FITC-Annexin V staining. […] The quantity of apoptotic cells stained by FITC-Annexin V after treatment with 1 or Au1a was also investigated by flow cytometry. […]
(§8) with gold(III) complexes and FITC-annexin V staining. HCT116 (1×10 5 cells) and […]
(§9) annexin-binding buffer solution. The cells were then incubated with FITC-annexin V […]
(§10) at room temperature in dark for 15 min. The solution was then removed, and the cells were washed with annexin-binding buffer solution. Fluorescence images were then […]
(§11) in ice and analyzed by flow cytometry immediately. […]
(§12) staining and flow cytometry.

[6] = test system: NCM460 cells; test: FITC-Annexin V staining and flow cytometry; assay type: cell-based, human; conditions: NCM460, 2 μM, 24 h
Method: as §7, §8, §9, §10, §11, §12

Molecule: COC(=O)c1ccc(C2=C3C=CC(=N3)C(c3ccccc3)=c3ccc4[n]3[Au+][n]3c(ccc32)C(c2ccccc2)=C2C=CC(=N2)C=4c2ccccc2)cc1.[Cl-] [Compound 3, [Au(TPP–COOCH3)]^+]
incubation time after which the amount in A2780adr cells decreases [1]: 0.75 h

Molecule: [Au(TPP–COO–PEG5000–OCH3)]Cl [Compound 1]
diameter of nanostructures (TEM) [2]: ca. 120 nm
Intensity-averaged signals from dynamic light scattering (hydrodynamic diameter) [3]: 120.8 ± 7.2 nm
incubation time at which induction of apoptosis was apparent [4]: no significant apoptosis
percent of apoptotic cells (FITC-Annexin V, background corrected) [5]: 22.5%
percent of apoptotic cells (FITC-Annexin V, background corrected) [6]: 2.4%

incubation time after which the amount in A2780adr cells decreases [1]: 0.5 h
Molecule: C1=Cc2nc1c(-c1ccccc1)c1ccc([n-]1)c(-c1ccccc1)c1nc(c(-c3ccccc3)c3ccc([n-]3)c2-c2ccccc2)C=C1.[Au+3].[Cl-] [Au1a, [Au(TPP)]Cl, reference compound]
incubation time at which induction of apoptosis was apparent [4]: 20 h
percent of apoptotic cells (FITC-Annexin V, background corrected) [5]: 39.6%
percent of apoptotic cells (FITC-Annexin V, background corrected) [6]: 39.3%

Molecule: [Au(TPP–CONH–PEG5000–OCH3)]Cl [Compound 2]
diameter of nanostructures (TEM) [2]: ~200 nm
Intensity-averaged signals from dynamic light scattering (hydrodynamic diameter) [3]: 177.1 ± 81.2 nm
